Structures can show the parent of a compound that is named as a salt. Where two headings read alike, the source gives them in different places.
How the values were obtained:
receptor 5-HT4(a) [1] = target: T1, receptor 5-HT4(a) (Homo sapiens, UniProt Q13639); experiment: [3H]GR113808 radioligand binding, membranes of transiently transfected COS-7 cells
T1 construct: The entire coding region of the cDNAs of 5-HT4(a), 5-HT4(b), 5-HT4(c) and 5-T4(d) was subcloned; expressed in transfected cells; host or cells: COS-7 cells, transient, pRC/CMV vector
T1 sequence (Q13639 1-387 isoform Q13639-2): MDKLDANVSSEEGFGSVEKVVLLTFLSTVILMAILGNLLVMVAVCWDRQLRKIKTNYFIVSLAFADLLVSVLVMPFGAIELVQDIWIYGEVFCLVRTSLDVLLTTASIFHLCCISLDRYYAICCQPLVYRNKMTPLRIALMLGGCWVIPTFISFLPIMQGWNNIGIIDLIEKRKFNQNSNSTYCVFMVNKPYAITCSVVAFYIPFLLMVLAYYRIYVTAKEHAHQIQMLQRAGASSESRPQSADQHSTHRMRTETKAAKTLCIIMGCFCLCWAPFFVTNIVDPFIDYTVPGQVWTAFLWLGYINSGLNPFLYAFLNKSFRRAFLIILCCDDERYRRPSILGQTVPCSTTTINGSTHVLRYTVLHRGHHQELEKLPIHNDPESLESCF
Procedure: (§1) The entire coding region of the cDNAs of 5-HT4(a), 5-HT4(b), 5-HT4(c) and 5-T4(d) was subcloned into a mammalian expression vector pRC/CMV (Invitrogen, Carlsbad, Calif.). The transfections were carried out using polyethyleneimine (PEI) as described in Boussif et al. (1995). The cells were transfected using a mixture of DNA and of PEI in a ratio of 20 μmol of PEI/mg of DNA in 0.9% NaCl. For the radioligand binding assays, the COS-7 cells were seeded into culture flasks of 1.5×10^4 mm^2 one day before the transfection, at a density of 1×10^7 cells/flask, incubated for six hours with plasmid DNA (150 μg/flask) and collected 48 hours after transfection. For the measurement of cAMP formation, the COS-7 cells were seeded onto twelve-well plates one day before transfection, at a density of 5×10^5 cells/well, incubated for six hours with plasmid DNA (4 to 8 μg/well according to the experiments) and assayed 24 hours after the transfection. The cells transfected with the receptor 5-HT4 cDNA constructs were compared with the “blank”-transfected cells, which were exposed to the unmodified pRC/CMV plasmid.
(§2) Each flask of cells intended for the radioligand binding assays was washed twice with a phosphate buffer (PBS). The cells were then scraped, collected and centrifuged at 300 g for five minutes. The pellet was resuspended in 2.5 ml of ice-cold HEPES buffer (50 mM, pH 7.4) and homogenized with an Ultraturax tissue grinder. The lysate was then centrifuged at 40,000 g for 20 minutes at 4° C. The resulting pellet was resuspended in 15 volumes of HEPES buffer (50 mM, pH 7.4). The membrane preparations were maintained in ice and used within two hours for radioligand binding assays. The protein concentrations were determined by the method of Lowry et al., 1951, using bovine serum albumin as standard.
(§3) The saturation studies were performed using [^3H] GR113808 at 9 different concentrations ranging from 0.01 to 3.5 nM. The tubes were incubated at 25° C. for 30 minutes. The reaction-was stopped by rapid filtration, under vacuum, through Whatman GF/B filter paper using the Brandel 48R cell harvester. The filters were presoaked in a solution of PEI (0.1%) to reduce the binding to the filters. The filters were then washed with an ice-cold buffer (50 mM Tris-HCl, pH 7.4) and placed in 4 ml of “ready safe” scintillation cocktail (Beckman, Fullerton, Calif.) overnight. The radioactivity was measured using a Beckman LS 6500 C liquid scintillation counter. The binding data were analysed by computer-assisted nonlinear regression analysis (Graph Pad Prism Program, Graph Pad Software, Inc., San Diego, Calif.).
(§4) The experiments correspond to the competition of various compounds for [^3H]GR113808 binding to membranes of transiently transfected COS-7 cells. […] The estimations of affinity are given as Ki values in nM, and are determined from IC50 values obtained by computer-assisted nonlinear curve analysis (GraphPad, Prism Software). The Ki values are representative of at least two determinations.

receptor 5-HT4(b) = target: T2, receptor 5-HT4(b) (Homo sapiens, UniProt Q13639); experiment: as above
T2 construct: The entire coding region of the cDNAs of 5-HT4(a), 5-HT4(b), 5-HT4(c) and 5-T4(d) was subcloned; expressed in transfected cells; host or cells: COS-7 cells, transient, pRC/CMV vector; cDNA amplified from human brain and ileum RNA
T2 sequence (Q13639 whole entry): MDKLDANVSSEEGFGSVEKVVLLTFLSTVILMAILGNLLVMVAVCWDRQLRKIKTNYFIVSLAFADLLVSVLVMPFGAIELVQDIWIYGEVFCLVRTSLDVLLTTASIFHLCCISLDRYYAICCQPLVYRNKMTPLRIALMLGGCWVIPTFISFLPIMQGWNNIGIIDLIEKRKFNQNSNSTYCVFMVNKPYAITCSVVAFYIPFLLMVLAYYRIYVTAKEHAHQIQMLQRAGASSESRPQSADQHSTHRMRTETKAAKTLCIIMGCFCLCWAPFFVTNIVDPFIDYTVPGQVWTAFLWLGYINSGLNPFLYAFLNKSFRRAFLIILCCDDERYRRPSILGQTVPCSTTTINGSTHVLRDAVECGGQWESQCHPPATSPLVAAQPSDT
Procedure: as §1, §2, §3, §4

receptor 5-HT4(c) = receptor 5-HT4(c) (Homo sapiens, UniProt Q13639); experiment: as above; design: The entire coding region of the cDNAs of 5-HT4(a), 5-HT4(b), 5-HT4(c) and 5-T4(d) was subcloned; expressed in transfected cells; host or cells: COS-7 cells, transient, pRC/CMV vector; cDNA amplified from human brain and ileum RNA
receptor 5-HT4(c), sequence (Q13639 1-380 isoform Q13639-4): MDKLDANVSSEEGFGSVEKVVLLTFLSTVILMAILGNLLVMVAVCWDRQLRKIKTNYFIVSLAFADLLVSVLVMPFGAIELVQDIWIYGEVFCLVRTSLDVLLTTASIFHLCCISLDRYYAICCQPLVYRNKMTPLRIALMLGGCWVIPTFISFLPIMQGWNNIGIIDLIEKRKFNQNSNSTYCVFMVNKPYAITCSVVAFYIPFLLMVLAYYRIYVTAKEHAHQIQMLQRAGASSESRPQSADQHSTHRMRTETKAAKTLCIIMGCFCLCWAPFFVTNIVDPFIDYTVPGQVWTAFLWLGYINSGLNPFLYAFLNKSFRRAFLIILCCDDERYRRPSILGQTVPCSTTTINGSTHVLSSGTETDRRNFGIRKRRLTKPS
Procedure: as §1, §2, §3, §4

receptor 5-HT4(d) = receptor 5-HT4(d) (Homo sapiens, UniProt Q13639); experiment: as above; design: The entire coding region of the cDNAs of 5-HT4(a), 5-HT4(b), 5-HT4(c) and 5-T4(d) was subcloned; expressed in transfected cells; host or cells: COS-7 cells, transient, pRC/CMV vector; cDNA amplified from human brain and ileum RNA
receptor 5-HT4(d), sequence (Q13639 1-360 isoform Q13639-3): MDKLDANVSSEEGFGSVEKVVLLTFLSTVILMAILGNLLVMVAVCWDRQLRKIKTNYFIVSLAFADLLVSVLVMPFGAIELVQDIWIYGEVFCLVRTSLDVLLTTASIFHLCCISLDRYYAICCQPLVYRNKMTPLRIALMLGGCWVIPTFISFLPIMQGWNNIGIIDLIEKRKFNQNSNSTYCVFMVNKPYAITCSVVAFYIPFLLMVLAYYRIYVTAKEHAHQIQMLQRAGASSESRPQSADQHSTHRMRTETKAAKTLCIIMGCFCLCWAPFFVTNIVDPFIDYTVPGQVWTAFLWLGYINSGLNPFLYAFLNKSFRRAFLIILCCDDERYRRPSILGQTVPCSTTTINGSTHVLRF
Procedure: as §1, §2, §3, §4

receptor 5-HT4(a) [2] = target: T1, receptor 5-HT4(a); experiment: cAMP formation in transiently transfected COS-7 cells; format: cell-based; conditions: COS-7, 1 μM agonist, 15 minutes
Procedure: as §1
(§5) To measure intracellular cAMP accumulation, the transiently transfected COS-7 cells were incubated, 24 hours after transfection, in Dulbecco's modified Eagle medium (DMEM) containing 5 mM theophylline, 10 mM HEPES and 10 μM pargyline for 15 minutes at 37° C., in the presence of 5% CO2. […] The reaction was stopped by aspiration of the medium and addition of 500 μl of ice-cold ethanol. After one hour at room temperature, the cells were scraped, and everything was collected and freeze-dried. The pellet was resuspended in 350 μl of PBS and centrifuged for 5 min at 300 g. The cAMP was quantified in the supernatant using a radioimmunological assay (E.R.I.A. assay kit from Pasteur Diagnostics 79830). Student's t tests were carried out using the program Quick TEst.

[3] = test system: “blank”-transfected COS-7 cells; experiment: cAMP formation in control COS-7 cells; format: cell-based; conditions: 1 μM
Procedure: as §1, §5

[4] = test system: cells expressing the isoforms of the receptor 5-HT4; experiment: cAMP formation in transiently transfected COS-7 cells, statement for all isoforms together; format: cell-based, human
Procedure: The entire coding region of the cDNAs of 5-HT4(a), 5-HT4(b), 5-HT4(c) and 5-T4(d) was subcloned into a mammalian expression vector pRC/CMV (Invitrogen, Carlsbad, Calif.). The transfections were carried out using polyethyleneimine (PEI) as described in Boussif et al. (1995). The cells were transfected using a mixture of DNA and of PEI in a ratio of 20 μmol of PEI/mg of DNA in 0.9% NaCl. […] The cells transfected with the receptor 5-HT4 cDNA constructs were compared with the “blank”-transfected cells, which were exposed to the unmodified pRC/CMV plasmid. […] The reaction was stopped by aspiration of the medium and addition of 500 μl of ice-cold ethanol. After one hour at room temperature, the cells were scraped, and everything was collected and freeze-dried. The pellet was resuspended in 350 μl of PBS and centrifuged for 5 min at 300 g. The cAMP was quantified in the supernatant using a radioimmunological assay (E.R.I.A. assay kit from Pasteur Diagnostics 79830). Student's t tests were carried out using the program Quick TEst.

[5] = 5-HT4(a), COS-7 membranes, [3H]GR113808 at 50% of Kd, read-out: Ki, competition for [3H]GR113808 binding
[6] = read-out: Ki, competition for [3H]GR113808 binding
[7] = 5-HT4(d), COS-7 membranes, [3H]GR113808 at 50% of Kd, read-out: Ki, competition for [3H]GR113808 binding
[8] = 5-HT4(b), COS-7 membranes, [3H]GR113808 at 50% of Kd, read-out: Ki, competition for [3H]GR113808 binding
[9] = 5-HT4(c), COS-7 membranes, [3H]GR113808 at 50% of Kd, read-out: Ki, competition for [3H]GR113808 binding

| SMILES | Ki (receptor 5-HT4(a) [1]; [5]) [nM] | Ki (receptor 5-HT4(d); [7]) [nM] | effect on basal adenylate cyclase activity / basal cAMP levels [3] | Ki (receptor 5-HT4(b); [8]) [nM] | Ki (receptor 5-HT4(c); [9]) [nM] | further results |
| --- | --- | --- | --- | --- | --- | --- |
| CCn1c(=O)n(C(=O)N[C@H]2C[C@H]3CC[C@@H](C2)N3C)c2ccccc21 [BIMU1] |  |  |  |  |  | Ki (receptor 5-HT4(a) [1]): 373 ± 119 nM; Ki (receptor 5-HT4(b)): 123 ± 9 nM; Ki (receptor 5-HT4(c)): 66 ± 8.37 nM; Ki (receptor 5-HT4(d)): 38.8 ± 12 nM |
| COc1cc(N)c(Cl)cc1C(=O)NC1CN2CCC1CC2 (stereo not drawn) [Zacopride, 4-amino-5-chloro-2-methoxy-N-(1-azabicyclo-[2,2,2]octo-3-yl)benzamide, hydrochloride] | 7750 ± 1620 | 3600 ± 1840 |  |  |  | Ki (receptor 5-HT4(b); [6]): 11500 ± 950 nM; Ki (receptor 5-HT4(c); [6]): 10600 ± 2160 nM |
| COc1cc(N)c(Cl)cc1C(=O)NC1CCN2CCCC1C2 (single isomer, unassigned; (+)) [Renzapride, (+)endo-4-amino-5-chloro-2-methoxy-N-(1-azabicyclo[3.3.1]non-4-yl)benzamide, hydrochloride] |  |  | no significant effect |  |  | increase in cAMP concentration (receptor 5-HT4(a) [2]): 56% |
| COc1cc(N)c(Cl)cc1C(=O)OCCN1CCCCC1 [ML10302, 2-(1-piperidyl)ethyl 4-amino-5-chloro-2-methoxy-benzoate] |  |  | no significant effect |  |  | stimulatory effect on cAMP as % of the stimulatory effect of 5-HT ([4]; 1 μM, COS-7 cells expressing the isoforms of the receptor 5-HT4): 28 to 34%; antagonism of the capacity of 5-HT (1 μM) to increase basal cAMP levels ([4]; preincubation with 1 μM prior to 5-HT, COS-7 cells expressing the isoforms): significantly antagonizes |
| Cn1cc(C(=O)OCC2CCN(CCNS(C)(=O)=O)CC2)c2ccccc21 [GR113808, ([1-[2-(methylsulphonyl)amino]ethyl]-4-piperidyl)methyl 1-methyl-1H-indole-3-carboxylate] | 0.33 ± 0.033 | 0.078 |  | 0.53 ± 0.1 | 0.41 ± 0.13 |  |
| COc1ccc2[nH]cc(CCN)c2c1 [5-MeOT, 5-methoxytryptamine] | 2080 ± 508 | 553 ± 149 |  | 2440 ± 510 | 1020 ± 236 |  |

— US6506580B1, “Splice variants for human 5-HT4 serotonin receptor and their applications, in particular for screening” (Institut National de la Sante et de la Recherche Medicale …, priority 1997, dated 2003)
